For one assay, the target named is rhIDO1 (Homo sapiens, UniProt P14902). Briefly: Enzyme-based IDO1 activity assay (kynurenine absorbance at 492 nm). In kind it is biochemical. To be noted: for inhibition at 50 µM: shown when calculated IC50 >50 μM, read-out: IDO inhibition rate (%) at 50 μM; for IC50: rhIDO1 0.05 μM, 37 °C, 45 min, read-out: IDO IC50. How it is done:
(§1) The compounds on IDO1 or TDO activity were determined as follows: A standard reaction mixture (100 μL) containing 100 mM potassium phosphate buffer (pH 6.5), 40 mM ascorbic acid (neutralized with NaOH), 200 μg/mL catalase, 20 μM methylene blue and 0.05 μM rhIDO1 or rhTDO was added to the solution containing the substrate L-tryptophan and the test sample at a determined concentration. […] The yellow pigment derived from kynurenine was measured at 492 nm using a SYNERGY-H1 microplate reader (Biotek Instruments, Inc., Winooski, VT, USA). IC50 was analyzed using the GraphPad Prism 8.0 software (GraphPad Software, San Diego, CA, USA).

Another assay has as its target rhTDO (Homo sapiens, UniProt P48775). As to the kind of experiment: Enzyme-based TDO activity assay (kynurenine absorbance at 492 nm). The assay is classed as biochemical. To be noted: for inhibition at 50 µM: shown when calculated IC50 >50 μM, read-out: TDO inhibition rate (%) at 50 μM; for inhibition at 50 µM / TDO IC50 or %: at 50 μM; for TDO IC50 or %: dash symbol. How it is done:
as §1

For the next assay, the system named is MCF7. As to the kind of experiment: Cell viability MTT assay, 72 h. In kind it is cell-based. To be noted: Homo sapiens; for inhibition at 50 µM: shown when calculated IC50 >50 μM, read-out: MCF7 inhibition rate (%) at 50 μM; for IC50: read-out: MCF7 IC50. How it is done:
(§2) B16-F10 mouse melanoma cells, NCI-H460 human lung cancer cell line and MCF7 were obtained from American Type Culture Collection (ATCC). All the cell lines were cultured with Dulbecco’ modified Eagle’s medium (DMEM) (Invitrogen Corporation, Waltham, MA, USA) supplemented with 10% fetal bovine serum (FBS) (Hyclone, Waltham, MA, USA) and 1% penicillin streptomycin (Invitrogen) at 37 °C in 5% CO2.
(§3) The in vitro inhibitory effects of the compounds were measured by MTT assay. Briefly, different kinds of cells were plated in 96-well plates at a density of 2000/well. After attachment for overnight at 37 °C, the cells were treated with the compounds at various concentrations. After 72 h culture, the MTT reagent was added to each well, and plates were incubated for another 4 h at 37 °C. Then, the blue-purple crystal formamidine was dissolved in DMSO after discarding the supernatant. Samples were measured using microplate reader at a wavelength of 570 nm (Biotek Instruments, Inc., Winooski, VT, USA). IC50 values were calculated with GraphPad Prism 8.0 software.

The subject of assay [1] is NCI-H460 human lung cancer cell line. As to the kind of experiment: Cell viability MTT assay, 72 h. To be noted: for inhibition at 50 µM: shown when calculated IC50 >50 μM, read-out: H460 inhibition rate (%) at 50 μM. In kind it is cell-based. Here is the method: as §2, §3

Broadly, the inhibition is the drop in the measured response relative to a control, in per cent. The term IC50 denotes the concentration at which inhibition is half-maximal.

Chain of rhTDO (P48775 whole entry): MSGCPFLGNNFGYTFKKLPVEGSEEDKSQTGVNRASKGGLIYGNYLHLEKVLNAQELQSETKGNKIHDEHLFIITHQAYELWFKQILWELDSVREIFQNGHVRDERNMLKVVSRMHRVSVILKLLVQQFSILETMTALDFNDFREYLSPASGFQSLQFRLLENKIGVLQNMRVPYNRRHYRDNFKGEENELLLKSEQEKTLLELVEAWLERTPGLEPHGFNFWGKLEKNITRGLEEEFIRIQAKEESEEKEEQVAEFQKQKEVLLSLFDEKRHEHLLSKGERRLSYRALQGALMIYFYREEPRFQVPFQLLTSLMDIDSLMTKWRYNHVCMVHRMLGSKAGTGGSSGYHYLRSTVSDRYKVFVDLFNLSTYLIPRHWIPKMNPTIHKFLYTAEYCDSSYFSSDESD
Chain of rhIDO1 (P14902 whole entry): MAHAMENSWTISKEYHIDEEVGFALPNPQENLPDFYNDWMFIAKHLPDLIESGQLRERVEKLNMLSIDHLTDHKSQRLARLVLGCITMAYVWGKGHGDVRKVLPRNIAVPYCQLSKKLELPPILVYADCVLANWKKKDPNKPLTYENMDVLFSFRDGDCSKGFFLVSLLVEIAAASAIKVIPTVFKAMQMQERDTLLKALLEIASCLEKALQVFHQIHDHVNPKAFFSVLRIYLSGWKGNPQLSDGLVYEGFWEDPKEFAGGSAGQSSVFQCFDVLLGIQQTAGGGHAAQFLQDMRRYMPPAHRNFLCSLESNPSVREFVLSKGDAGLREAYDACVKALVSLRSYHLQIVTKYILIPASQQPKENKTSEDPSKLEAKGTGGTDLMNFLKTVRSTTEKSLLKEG

On to `O=C1CC(Cc2c[nH]c3ccccc23)C(=O)N1` (racemic) [DX-02-02, (R/S) 3-((1H-indol-3-yl)methyl)pyrrolidine-2,5-dione], for which the inhibition at 50 µM at rhIDO1 (at 50 μM) was 7.2%; on rhTDO, 2.3%.
On to `CCOC(=O)c1[nH]c2ccc(F)cc2c1C1CC(=O)NC1=O` (racemic) [DX-02-03, (R/S) Ethyl 3-(2,5-dioxopyrrolidin-3-yl)-5-fluoro-1H-indole-2-carboxylate], for which the inhibition at 50 µM on rhIDO1 (at 50 μM) was 21.6%; on rhTDO, 15.4%; in the assay on MCF7, 22.1%; in assay [1] it was 21.7%.
For the compound `O=C1CC(c2c(/C=N/O)[nH]c3ccc(F)cc23)C(=O)N1` (racemic) [DX-02-04, (R/S) (E)-3-(2,5-dioxopyrrolidin-3-yl)-5-fluoro-1H-indole-2-carbaldehyde oxime], the inhibition at 50 µM on rhIDO1 (at 50 μM) is 40.2%; on rhTDO it was 14.5%.
Turning to `O=C1CC(c2c(CNO)[nH]c3ccc(F)cc23)C(=O)N1` (racemic) [DX-02-05, (R/S) 3-(5-fluoro-2-((hydroxyamino)methyl)-1H-indol-3-yl)pyrrolidine-2,5-dione], the inhibition at 50 µM was 12.5% on rhIDO1 (at 50 μM) and 16.3% at rhTDO.
Regarding `CSc1[nH]c2ccc(F)cc2c1C1CC(=O)NC1=O` (racemic) [DX-02-06, (R/S) 3-(5-fluoro-2-(methylthio)-1H-indol-3-yl)pyrrolidine-2,5-dione], the inhibition at 50 µM was 22.6% at rhIDO1 (at 50 μM), 19.6% at rhTDO, 19.9% in the assay on MCF7 and 30.1% in assay [1].
For `C[S+]([O-])c1[nH]c2ccc(F)cc2c1C1CC(=O)NC1=O` (racemic) [DX-02-07, (R/S) 3-(5-fluoro-2-(methylsulfinyl)-1H-indol-3-yl)pyrrolidine-2,5-dione], the inhibition at 50 µM was 20.1% at rhIDO1 (at 50 μM), 13.9% on rhTDO, 11% in the assay on MCF7 and 15.2% in assay [1].
On to `O=C(O)c1cc2ccccc2[nH]1` [DX-01-01], for which the inhibition at 50 µM at rhIDO1 (at 50 μM) is 9.7%; at rhTDO, 8.9%.
Consider `Cc1cccc2[nH]cc(C(=O)O)c12` [DX-01-02, 4-methyl-1H-indole-3-carboxylic Acid], for which the results for the inhibition at 50 µM (on rhIDO1 (at 50 μM); on rhTDO; in assay [1]) were 2.4%, 10% and 39.2%, respectively. The IC50 with MCF7 was determined as 43.1 µM.
Regarding `Cc1ccc2[nH]cc(C(=O)O)c2c1` [DX-01-03, 5-methyl-1H-indole-3-carboxylic Acid], the inhibition at 50 µM is 10.3% on rhIDO1 (at 50 μM), 10.1% at rhTDO, 37.6% in the assay on MCF7 and 26.3% in assay [1].
As to `O=C(O)c1c[nH]c2ccc([N+](=O)[O-])cc12` [DX-01-04, 5-nitro-1H-indole-3-carboxylic Acid], the inhibition at 50 µM at rhIDO1 (at 50 μM) was 3.3%; on rhTDO it was 6%; in the assay with MCF7, 24.3%; in assay [1], 15.1%.
Turning to `O=C(O)c1c[nH]c2cc([N+](=O)[O-])ccc12` [DX-01-05, 6-nitro-1H-indole-3-carboxylic Acid], the inhibition at 50 µM at rhIDO1 (at 50 μM) is 10.2%; on rhTDO it was 10.5%; with MCF7, 29.7%; in assay [1], 5.9%.
Regarding `COc1ccc2[nH]cc(C(=O)O)c2c1` [DX-01-06, 5-methoxy-1H-indole-3-carboxylic Acid], the inhibition at 50 µM was 6.2% on rhIDO1 (at 50 μM), 8.4% at rhTDO, 25.7% in the assay with MCF7 and 11.2% in assay [1].
`O=C(O)c1c[nH]c2c(Br)cccc12` [DX-01-07, 7-bromo-1H-indole-3-carboxylic Acid]: the inhibition at 50 µM at rhIDO1 (at 50 μM) was 7.4%; on rhTDO it was 16.9%; in the assay on MCF7 it was 34.6%; in assay [1] it was 22.2%.
For the compound `O=[N+]([O-])c1c[nH]c2ccccc12` [DX-01-08], the inhibition at 50 µM at rhIDO1 (at 50 μM) is 10.9%; at rhTDO, 3.2%.
Taken in the same sequence, the figures for `N#Cc1c[nH]c2ccccc12` [DX-01-09] were 2.6% and 7.8%.
As for `N#CCc1c[nH]c2ccccc12` [DX-01-10], the inhibition at 50 µM at rhIDO1 (at 50 μM) is 2.1%; at rhTDO, 8.9%.
Turning to `COc1ccc2[nH]cc(CCNC(C)=O)c2c1` [DX-01-11], the “IDO IC50 or %” value at rhIDO1 (at 50 μM, dash symbol) was “-”. In addition, the inhibition at 50 µM on rhTDO is 3.8%.
For the compound `O=C(NO)c1c[nH]c2ccccc12` [DX-01-12], the inhibition at 50 µM at rhIDO1 (at 50 μM) was 47.1%; at rhTDO, 33.9%.
On to `O/N=C/c1c[nH]c2ccccc12` [DX-01-13, (E) 1H-indole-3-carbaldehyde Oxime], for which the inhibition at 50 µM on rhIDO1 (at 50 μM) was 19.7%; on rhTDO it was 8.1%; in the assay on MCF7, 10.1%; in assay [1], 23.1%.
For the compound `ONCc1c[nH]c2ccccc12` [DX-01-14, N-((1H-indol-3-yl)methyl)hydroxylamine], on rhIDO1, the “IDO1 inhibition, in words” value was “moderate” and the IC50 was 11.1 µM. The inhibition at 50 µM at rhTDO is 38.2%.
For the compound `Cc1ccccc1-c1ccc2[nH]cc(CNO)c2c1` [DX-01-15, N-((5-(o-tolyl)-1H-indol-3-yl)methyl)hydroxylamine], on rhIDO1, the “IDO1 inhibition, in words” value is given as “moderate” and the IC50 stood at 21.3 µM. In addition, on rhTDO, the inhibition at 50 µM is 35.4%.
As for `O/N=C/c1cc2ccccc2[nH]1` [DX-01-16, (E)-1H-indole-2-carbaldehyde Oxime], the “IDO1 inhibition, in words” value on rhIDO1 is on record as “moderate”. Besides, on rhIDO1, the IC50 came out at 23.2 µM. Further, the inhibition at 50 µM is 19.7% at rhTDO, 20.9% in the assay on MCF7 and 44.5% in assay [1].
`ONCc1cc2ccccc2[nH]1` [DX-01-17, N-((1H-indol-2-yl)methyl)hydroxylamine]: at rhIDO1, the “IDO1 inhibition, in words” value is “moderate” and the IC50 was determined as 17.7 µM. At rhTDO, the inhibition at 50 µM was 42.2%.
As for `O=c1[nH]c2ccccc2o1` [DX-01-18], at rhIDO1 (at 50 μM), the inhibition at 50 µM was 5.4%. For the same compound, on rhTDO (Table 1), the “TDO IC50 or %” value is listed as “-”.
As to `N#CCc1nc2ccccc2o1` [DX-01-20], the inhibition at 50 µM is 15.7% on rhIDO1 (at 50 μM) and 3.8% at rhTDO.
As to `N#CCc1nc2ccccc2[nH]1` [DX-01-22], the values for the inhibition at 50 µM on rhIDO1 (at 50 μM) and on rhTDO were 13.2% and 4.5%, respectively.
As for `O=C1C/C(=C\c2c[nH]c3ccccc23)C(=O)N1` [DX-02-01, (E)-3-((1H-indol-3-yl)methylene)pyrrolidine-2,5-dione], the inhibition at 50 µM at rhIDO1 (at 50 μM) is 6.3%. The “TDO IC50 or %” value on rhTDO (Table 2) is on record as “-”.
As for `O/N=C/c1ccccc1-c1c[nH]cn1` [DX-03-02, (E) 2-(1H-imidazol-4-yl)benzaldehyde Oxime], the inhibition at 50 µM on rhIDO1 (at 50 μM) was 24.2%; at rhTDO, 13.9%.
For the compound `O/N=C/c1cc(Cl)ccc1-c1c[nH]cn1` [DX-03-05, (E) 5-chloro-2-(1H-imidazol-4-yl)benzaldehyde Oxime], the inhibition at 50 µM on rhIDO1 (at 50 μM) was 31.3%; at rhTDO, 12.1%.
Taken in the same sequence, the figures for `O/N=C/c1c(F)cccc1-c1c[nH]cn1` [DX-03-06, (E) 2-fluoro-6-(1H-imidazol-4-yl)benzaldehyde Oxime] were 25.6% and 12.9%.
Taken in the same sequence, the figures for `COc1ccc(-c2c[nH]cn2)c(/C=N/O)c1` [DX-03-07, (E) 2-(1H-imidazol-4-yl)-5-methoxybenzaldehyde Oxime] were 33.5% and 15.1%.
As for `O/N=C/c1cc(-c2ccccc2C(F)(F)F)ccc1-c1c[nH]cn1` [DX-03-08, (E) 4-(1H-imidazol-4-yl)-2′-(trifluoromethyl)-[1,1′-biphenyl]-3-carbaldehyde Oxime], the inhibition at 50 µM is 15.6% on rhIDO1 (at 50 μM) and 11.1% at rhTDO.
For `NS(=O)(=O)NCCCOc1ccccc1-c1c[nH]cn1` [DX-03-11, N-(3-(2-(1H-imidazol-5-yl)phenoxy)propyl)-aminesulfonamide], the IC50 at rhIDO1 turned out to be 2.4 µM. Further, on rhTDO, the “TDO inhibition, in words” value is reported as “marginal” and the inhibition at 50 µM is 38.2%.
For the compound `CC(=O)O[C@H]1C(=O)[C@@]2(C)[C@H]([C@H](OC(=O)c3ccccc3)[C@]3(O)C[C@H](OC(=O)[C@H](O)[C@@H](NC(=O)c4ccccc4)c4ccccc4)C(C)=C1C3(C)C)[C@]1(OC(C)=O)CO[C@@H]1C[C@@H]2O` [Taxol, reference compound], the IC50 came to 0.015 µM in the assay on MCF7 and 0.006 µM in assay [1] (read-out: H460 IC50).
